Laboratory results taken from the supplement of paper PMC11208160.

test: recombinant barcode read abundance after kanamycin selection (control-corrected) (log10(CPM+1)); higher = more efficient recombination; sequences stand for … in AGTGCAGAGAAAATCGGCCAGTTTTCTCTGCCTGCAGTCCGCATGCCGT…ATTTATGCAGCGGACTGCCTTTCTCCCAAAGTGATAAACCGGACAGTATCATGGACCGGTTTTCCCGGTAATCCGTATTTGCAAGGTTGGTTTCACT; site = the 11-nt target
In short: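 IS621 bridge RNA target-binding loops were paired with targets in a pooled library tested in E. coli. After co-electroporation with a donor plasmid, cells were plated in two replicates on chloramphenicol/ampicillin LB agar (control) and on chloramphenicol/ampicillin/kanamycin carrying 0.1 mM IPTG. Barcodes at recombinant junctions were counted as counts per million, averaged and control-corrected to give recombination efficiency. Values are log10(CPM+1).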

| Sequence | recombinant barcode read abundance (log10) |
| --- | --- |
| GGGAGCCGATGGGTTCTAACCTGTTGCTGAG [GGGAGCCCTCA_LTGcore_GA_RTGcore_CT] (site GGGAGCCCTCA) (LTG core: GA, RTG core: CT) | 0.0418 |
| ATGCTTTCTTGGGTTCTAACCTGTTGCCTAT [ATGCTTTCTAG_LTGcore_CT_RTGcore_AT] (site ATGCTTTCTAG) (LTG core: CT, RTG core: AT) | 0.128 |
| GGGAGCCCTTGGGTTCTAACCTGTTGCTGTC [GGGAGCCCTCA_LTGcore_CT_RTGcore_GA] (site GGGAGCCCTCA) (LTG core: CT, RTG core: GA) | 0.0409 |
| AGGAGGTCTTGGGTTCTAACCTGTTGCCTAC [AGGAGGTCTAG_LTGcore_CT_RTGcore_GT] (site AGGAGGTCTAG) (LTG core: CT, RTG core: GT) | 0.332 |
| CGGTCCCCGTGGGTTCTAACCTGTTGCCACG [CGGTCCCCTTG_LTGcore_CG_RTGcore_CG] (site CGGTCCCCTTG) (LTG core: CG, RTG core: CG) | 0.342 |
| TAGAGGGCGTGGGTTCTAACCTGTTGCGGCG [TAGAGGGCTCC_LTGcore_CG_RTGcore_CG] (site TAGAGGGCTCC) (LTG core: CG, RTG core: CG) | 0.0165 |
| GGGCGGATATGGGTTCTAACCTGTTGCGGAG [GGGCGGACTCC_LTGcore_TA_RTGcore_CT] (site GGGCGGACTCC) (LTG core: TA, RTG core: CT) | 0.0954 |
| AGGCGGGCTTGGGTTCTAACCTGTTGCGGGC [AGGCGGGCTCC_LTGcore_CT_RTGcore_GC] (site AGGCGGGCTCC) (LTG core: CT, RTG core: GC) | 0.249 |
| GAGCCCACCTGGGTTCTAACCTGTTGCCTGG [GAGCCCACTAG_LTGcore_CC_RTGcore_CC] (site GAGCCCACTAG) (LTG core: CC, RTG core: CC) | 0.0451 |
| TTATAAACATGGGTTCTAACCTGTTGCCTTG [TTATAAACTAG_LTGcore_CA_RTGcore_CA] (site TTATAAACTAG) (LTG core: CA, RTG core: CA) | 0.0537 |
| AAACATGACTGGGTTCTAACCTGTTGCCTGT [AAACATGCTAG_LTGcore_AC_RTGcore_AC] (site AAACATGCTAG) (LTG core: AC, RTG core: AC) | 0.123 |
| TCTACCCATTGGGTTCTAACCTGTTGCTGAG [TCTACCCCTCA_LTGcore_AT_RTGcore_CT] (site TCTACCCCTCA) (LTG core: AT, RTG core: CT) | 0.331 |
| GTCGCCCACTGGGTTCTAACCTGTTGCTAGT [GTCGCCCCTTA_LTGcore_AC_RTGcore_AC] (site GTCGCCCCTTA) (LTG core: AC, RTG core: AC) | 0.348 |
| AGGCGGTCATGGGTTCTAACCTGTTGCTTTG [AGGCGGTCTAA_LTGcore_CA_RTGcore_CA] (site AGGCGGTCTAA) (LTG core: CA, RTG core: CA) | 0.128 |
| TAAGAATCTTGGGTTCTAACCTGTTGCCTTG [TAAGAATCTAG_LTGcore_CT_RTGcore_CA] (site TAAGAATCTAG) (LTG core: CT, RTG core: CA) | 0.89 |
| CATATTAATTGGGTTCTAACCTGTTGCCTAG [CATATTACTAG_LTGcore_AT_RTGcore_CT] (site CATATTACTAG) (LTG core: AT, RTG core: CT) | 0.195 |
| AGGAGGTACTGGGTTCTAACCTGTTGCCTGT [AGGAGGTCTAG_LTGcore_AC_RTGcore_AC] (site AGGAGGTCTAG) (LTG core: AC, RTG core: AC) | 0.183 |
| CGCGCCCGATGGGTTCTAACCTGTTGCGGAG [CGCGCCCCTCC_LTGcore_GA_RTGcore_CT] (site CGCGCCCCTCC) (LTG core: GA, RTG core: CT) | 0.217 |
| GGCTCCCCATGGGTTCTAACCTGTTGCGGTG [GGCTCCCCTCC_LTGcore_CA_RTGcore_CA] (site GGCTCCCCTCC) (LTG core: CA, RTG core: CA) | 0.1 |
| TCTACCCCTTGGGTTCTAACCTGTTGCTGGT [TCTACCCCTCA_LTGcore_CT_RTGcore_AC] (site TCTACCCCTCA) (LTG core: CT, RTG core: AC) | 0.0498 |
| CGGTCCCCTTGGGTTCTAACCTGTTGCCACA [CGGTCCCCTTG_LTGcore_CT_RTGcore_TG] (site CGGTCCCCTTG) (LTG core: CT, RTG core: TG) | 0.0539 |
| GGGCGTGCTTGGGTTCTAACCTGTTGCCTGA [GGGCGTGCTAG_LTGcore_CT_RTGcore_TC] (site GGGCGTGCTAG) (LTG core: CT, RTG core: TC) | 1.02 |
| GGGCGGACTTGGGTTCTAACCTGTTGCGGAT [GGGCGGACTCC_LTGcore_CT_RTGcore_AT] (site GGGCGGACTCC) (LTG core: CT, RTG core: AT) | 0.0401 |

| Sequence | recombinant barcode read abundance (log10) |
| --- | --- |
| AGGAGGTATTGGGTTCTAACCTGTTGCCTAT [AGGAGGTCTAG_LTGcore_AT_RTGcore_AT] (site AGGAGGTCTAG) (LTG core: AT, RTG core: AT) | 0.643 |
| TCGCGACCGTGGGTTCTAACCTGTTGCCGAG [TCGCGACCTCG_LTGcore_CG_RTGcore_CT] (site TCGCGACCTCG) (LTG core: CG, RTG core: CT) | 0.392 |
| TAGAGGGCTTGGGTTCTAACCTGTTGCGGTG [TAGAGGGCTCC_LTGcore_CT_RTGcore_CA] (site TAGAGGGCTCC) (LTG core: CT, RTG core: CA) | 0.438 |
| AAACATGGGTGGGTTCTAACCTGTTGCCTCC [AAACATGCTAG_LTGcore_GG_RTGcore_GG] (site AAACATGCTAG) (LTG core: GG, RTG core: GG) | 0.137 |
| CATATTACTTGGGTTCTAACCTGTTGCCTAC [CATATTACTAG_LTGcore_CT_RTGcore_GT] (site CATATTACTAG) (LTG core: CT, RTG core: GT) | 1.01 |
| AAACACACTTGGGTTCTAACCTGTTGCCTTA [AAACACACTAG_LTGcore_CT_RTGcore_TA] (site AAACACACTAG) (LTG core: CT, RTG core: TA) | 0.852 |
| CATATTACATGGGTTCTAACCTGTTGCCTAG [CATATTACTAG_LTGcore_CA_RTGcore_CT] (site CATATTACTAG) (LTG core: CA, RTG core: CT) | 0.126 |
| AAACACACTTGGGTTCTAACCTGTTGCCTCA [AAACACACTAG_LTGcore_CT_RTGcore_TG] (site AAACACACTAG) (LTG core: CT, RTG core: TG) | 0.985 |
| TCGCGACCTTGGGTTCTAACCTGTTGCCGAT [TCGCGACCTCG_LTGcore_CT_RTGcore_AT] (site TCGCGACCTCG) (LTG core: CT, RTG core: AT) | 0.514 |
| AAACAGTGATGGGTTCTAACCTGTTGCCTAG [AAACAGTCTAG_LTGcore_GA_RTGcore_CT] (site AAACAGTCTAG) (LTG core: GA, RTG core: CT) | 0.192 |
| TGATACCCTTGGGTTCTAACCTGTTGCGTGG [TGATACCCTAC_LTGcore_CT_RTGcore_CC] (site TGATACCCTAC) (LTG core: CT, RTG core: CC) | 0.651 |
| AGGCCTCCTTGGGTTCTAACCTGTTGCCTCC [AGGCCTCCTAG_LTGcore_CT_RTGcore_GG] (site AGGCCTCCTAG) (LTG core: CT, RTG core: GG) | 0.102 |
| AAACACATCTGGGTTCTAACCTGTTGCCTGA [AAACACACTAG_LTGcore_TC_RTGcore_TC] (site AAACACACTAG) (LTG core: TC, RTG core: TC) | 0.505 |
| TAGAGGGCTTGGGTTCTAACCTGTTGCGGAA [TAGAGGGCTCC_LTGcore_CT_RTGcore_TT] (site TAGAGGGCTCC) (LTG core: CT, RTG core: TT) | 0.746 |
| GTCGCCCTGTGGGTTCTAACCTGTTGCTAAG [GTCGCCCCTTA_LTGcore_TG_RTGcore_CT] (site GTCGCCCCTTA) (LTG core: TG, RTG core: CT) | 0.405 |
| GGGCGTGCTTGGGTTCTAACCTGTTGCCTGT [GGGCGTGCTAG_LTGcore_CT_RTGcore_AC] (site GGGCGTGCTAG) (LTG core: CT, RTG core: AC) | 0.536 |
| ATGCTTTGTTGGGTTCTAACCTGTTGCCTAG [ATGCTTTCTAG_LTGcore_GT_RTGcore_CT] (site ATGCTTTCTAG) (LTG core: GT, RTG core: CT) | 0.0408 |
| AAACACACTTGGGTTCTAACCTGTTGCCTAC [AAACACACTAG_LTGcore_CT_RTGcore_GT] (site AAACACACTAG) (LTG core: CT, RTG core: GT) | 0.217 |
| TAGAGGGGGTGGGTTCTAACCTGTTGCGGAG [TAGAGGGCTCC_LTGcore_GG_RTGcore_CT] (site TAGAGGGCTCC) (LTG core: GG, RTG core: CT) | 0.0671 |
| AGTCTTACTTGGGTTCTAACCTGTTGCCAGG [AGTCTTACTTG_LTGcore_CT_RTGcore_CC] (site AGTCTTACTTG) (LTG core: CT, RTG core: CC) | 0.196 |
| ATGTCCCGCTGGGTTCTAACCTGTTGCTCGC [ATGTCCCCTGA_LTGcore_GC_RTGcore_GC] (site ATGTCCCCTGA) (LTG core: GC, RTG core: GC) | 0.103 |
| CGAGCCCGCTGGGTTCTAACCTGTTGCTGGC [CGAGCCCCTCA_LTGcore_GC_RTGcore_GC] (site CGAGCCCCTCA) (LTG core: GC, RTG core: GC) | 0.0793 |
